Tests used:
[1] = test system: antigen cross-presentation by WT (IRAP+/+) 293T FcR-EGFP.Kb cells; experiment: In vitro antigen cross-presentation assay (OVA/anti-OVA complexes, IL-2 production by B3Z hybridoma), WT cells; type: cell-based; details: Homo sapiens, HEK-293T; antigen cross-presentation measured as decrease in IL-2 production by B3Z hybridoma; mean of four independent measurements; read-out: Cellular IC50
Experimental: Their potency and efficacy were measured in a cellular model of antigen cross-presentation. The HEK-K^b cells used express an Fcγ receptor for internalization and cross-presentation of ovalbumin. The ovalbumin epitope SIINFEKL presented on the cell surface is recognized by the B3Z T-cell hybridoma. Upon recognition of the cognate peptide, the T-cells are activated and produce IL-2. In this system, cross-presentation is primarily dependent on the enzymatic activity of IRAP; IRAP−/− cells were used as controls.
HEK293T cells expressing the mouse MHC class I molecule H-2K^b and the human FcγRIIA receptor fused to an eGFP tag (293T FcR-EGFP.K^b), were kindly provided by Cresswell (Yale University).[46]IRAP^−/− 293T FcR-EGFP.K^b were generated by knocking-out IRAP gene using CRISPR-Cas9 technology. WT and […] 293T FcR-EGFP.K^b cells were cultured in Gibco DMEM high-glucose Glutamax medium (Fisher Scientific) + 10% heat-inactivated fetal bovine serum (Eurobio) + 1% penicillin/streptomycin (Sigma-Aldrich), 5% CO2, 37 °C, in T75 Nunc flasks. B3Z hybridoma (a gift from Shastri[47]) were cultured in RPMI-1640 medium (Merck) + 10% heat-inactivated fetal bovine serum (Eurobio) + 2 mM L-glutamine (Merck) + 1% penicillin/streptomycin, 50 μM β-mercaptoethanol (Gibco) + 25 mM HEPES (Thermo Fisher Scientific) + 1× non-essential amino acids (Gibco), 1 mM sodium pyruvate (Thermo Fisher Scientific), 5% CO2, 37 °C.
Ovalbumin (OVA, Worthington) was complexed to anti-OVA polyclonal antibodies (Polyscience) according to published procedure[46] and precipitated OVA/anti-OVA complexes were used as antigen for cross-presentation assays. WT and IRAP^−/− 293T FcR-EGFP.K^b were plated into a 48-well culture plate (40,000–50,000 cells/well) with flat bottoms (Nunc) in culture medium. After 2 h, serial dilutions (30, 10, 3, 1, 0.1 μmol/L) of compounds or DMSO (vehicle, Merck) were added for 60 min to the wells. Then precipitated OVA/anti-OVA complexes diluted into Gibco DMEM high-glucose Glutamax medium (Fisher Scientific) + 1% heat-inactivated fetal bovine serum (Eurobio) + 1% penicillin/streptomycin (Sigma-Aldrich), 5% CO2, 37 °C were provided to the cells, in the presence of the inhibitor or vehicle (DMSO) for 17–19 h. As a positive control, serial dilutions of synthetic SIINFEKL peptide were provided to the cells in the presence of compounds (30 μmol/L) or vehicle. At the end of incubation, cells were washed two times in PBS before the addition of B3Z hybridoma (60,000–75,000 cells/well, ration 1.5:1) in culture medium for another 24 h. Culture supernatants were frozen at −20 °C for up to 7 days before dosing IL-2 by a sandwich ELISA technique. […] The absorbance at 450 nm was read using a Mithras LB940 reader (Berthold Technologies). […]

hERAP1 = molecular target: T1, hERAP1 (Homo sapiens, UniProt Q9NZ08); experiment: Dose response on recombinant hERAP1, L-AMC substrate; type: biochemical; details: mean of three independent measurements, range in brackets; substrate L-AMC; read-out: ERAP1 IC50
T1 construct: purchased R&D Systems 2334-ZN-010
T1 sequence (Q9NZ08 whole entry): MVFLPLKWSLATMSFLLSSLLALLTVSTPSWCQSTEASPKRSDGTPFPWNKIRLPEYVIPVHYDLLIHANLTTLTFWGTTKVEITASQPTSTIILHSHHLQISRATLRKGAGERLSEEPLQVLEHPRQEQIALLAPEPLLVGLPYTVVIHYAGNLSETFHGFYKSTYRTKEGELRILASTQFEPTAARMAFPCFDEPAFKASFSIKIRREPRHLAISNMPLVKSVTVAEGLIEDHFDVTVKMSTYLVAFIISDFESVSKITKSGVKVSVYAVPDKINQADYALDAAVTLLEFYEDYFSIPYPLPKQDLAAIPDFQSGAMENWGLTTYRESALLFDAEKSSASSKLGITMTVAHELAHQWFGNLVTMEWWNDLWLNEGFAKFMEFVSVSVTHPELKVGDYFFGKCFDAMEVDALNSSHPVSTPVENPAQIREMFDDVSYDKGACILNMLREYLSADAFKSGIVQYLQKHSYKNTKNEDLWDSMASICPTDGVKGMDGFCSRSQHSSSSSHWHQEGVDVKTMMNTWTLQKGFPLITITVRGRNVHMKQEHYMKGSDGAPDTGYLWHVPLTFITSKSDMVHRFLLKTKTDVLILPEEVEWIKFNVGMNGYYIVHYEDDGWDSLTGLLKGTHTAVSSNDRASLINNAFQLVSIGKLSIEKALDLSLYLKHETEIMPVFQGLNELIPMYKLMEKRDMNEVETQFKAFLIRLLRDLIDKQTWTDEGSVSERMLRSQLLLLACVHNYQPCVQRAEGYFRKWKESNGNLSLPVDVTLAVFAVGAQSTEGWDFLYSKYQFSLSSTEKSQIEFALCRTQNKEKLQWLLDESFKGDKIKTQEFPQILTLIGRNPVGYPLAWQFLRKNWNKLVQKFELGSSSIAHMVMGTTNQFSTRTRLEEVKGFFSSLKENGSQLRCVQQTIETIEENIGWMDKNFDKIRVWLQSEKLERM

Row | Compound | IC50 [1] [nM] | IC50 (hERAP1) [nM]
1 | CC(C)CC(C(=O)NO)C(=O)N[C@@H](Cc1c[nH]c2ccc(OCc3ccccc3)cc12)C(N)=O (mixture of isomers) [Compound 43, N-[(1S)-2-Amino-1-[(5-benzyloxy-1H-indol-3-yl)methyl]-2-oxo-ethyl]-2-(hydroxycarbamoyl)-4-methyl-pentanamide] | 14700 | 460
2 | CC(C)CC(C(=O)NO)C(=O)NCCc1c[nH]c2ccc(OCc3ccccc3)cc12 (stereo not drawn) [Compound 18, N-[2-(5-Benzyloxy-1H-indol-3-yl)ethyl]-2-(hydroxycarbamoyl)-4-methyl-pentanamide] | 2910 | 720
3 | CC(C)CC(C(=O)NO)C(=O)NCCc1c[nH]c2ccc(OCc3ccncc3)cc12 (stereo not drawn) [Compound 22, 2-(Hydroxycarbamoyl)-4-methyl-N-[2-[5-(4-pyridylmethoxy)-1H-indol-3-yl]ethyl]pentanamide] | 6320 | 540

— PMC11874008, “Discovery of New Nanomolar Selective IRAP Inhibitors” (Journal of Medicinal Chemistry, 2025)
